{"source": "paper PMC9598282", "about": "(Antibiotics, 2022)", "key": {"E. coli 107115": {"system": "E. coli 107115", "assay": "microbe, parasite or virus in culture", "assay_type": "cell-based, Escherichia coli", "method": "(§1) The adjuvant properties of the guanidinylated polymyxins were evaluated using the checkerboard assay as previously described. The bacterial solution was prepared as described in the antimicrobial susceptibility assay. The antibiotic of interest and the adjuvant were serially diluted two-fold along the x- and y-axis on a 96-well plate, respectively, resulting in varying concentrations of both agents in each well. Equal volumes of bacterial solution were added to the designated wells. The well consisting of bacterial solution served as the positive control, while the wells containing only media served as the negative control. The plate was then incubated at 37 °C for 18 h. After incubation, an Emax Plus microplate reader (Molecular Devices, Union City, CA, USA) was used to measure the OD at a wavelength of 590 nm to confirm the turbidity. The fractional inhibitory concentration (FIC) index was then determined to establish the relationship between the antibiotic and adjuvant. The FIC index corresponds to the sum of the FICs of the antibiotic and adjuvant. The FIC of each agent is calculated by dividing its MIC when it is used in combination by its MIC when used alone. FIC indices ≤0.5, 0.5 < x ≤ 4 and >4 indicate synergy, additivity and antagonism, respectively."}, "E. cloacae 121187": {"system": "E. cloacae 121187", "assay": "microbe, parasite or virus in culture", "assay_type": "cell-based, Enterobacter cloacae", "method": "as §1"}, "K. pneumoniae 113250": {"system": "K. pneumoniae 113250", "assay": "Checkerboard assay", "assay_type": "cell-based, Klebsiella pneumoniae", "method": "as §1"}, "K. pneumoniae 113254": {"system": "K. pneumoniae 113254", "assay": "Checkerboard assay", "assay_type": "cell-based, Klebsiella pneumoniae", "method": "as §1"}, "P. aeruginosa PA 88949": {"system": "P. aeruginosa PA 88949", "assay_type": "cell-based, Pseudomonas aeruginosa", "method": "as §1"}, "P. aeruginosa PA 107092": {"system": "P. aeruginosa PA 107092", "assay_type": "cell-based, Pseudomonas aeruginosa", "method": "as §1"}, "P. aeruginosa PA 86052": {"system": "P. aeruginosa PA 86052", "assay_type": "cell-based, Pseudomonas aeruginosa", "details": "PA 86052, 18 h", "method": "as §1"}, "P. aeruginosa PA 109084": {"system": "P. aeruginosa PA 109084", "assay_type": "cell-based, Pseudomonas aeruginosa", "method": "as §1"}, "P. aeruginosa 114228": {"system": "P. aeruginosa 114228", "assay": "microbe, parasite or virus in culture", "assay_type": "cell-based, Pseudomonas aeruginosa", "summary_of_the_method": "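Antibiotic and guanidinylated polymyxin adjuvant were two-fold serially diluted across perpendicular axes, combined with bacterial suspension and incubated 18 h at 37 °C. Turbidity was read as OD590. FIC index is the sum of each agent's MIC in combination divided by its MIC alone: ≤0.5 synergy, 0.5–4 additivity, >4 antagonism.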"}, "[1]": {"details": "agent alone, one value per checkerboard plate"}, "[2]": {"details": "adjuvant at 0.5 μg/mL as printed"}, "[3]": {"details": "with 8 μM avibactam, adjuvant at 2 (PMBN, GCol), 1 (GPMB) μg/mL"}}, "note": "Where two headings read alike, the source gives them in different places. Bridge positions count the residues as written; N and C are the ends. Square brackets hold non-standard residues; d marks the D form. Peptide text beside a SMILES is read from it. Dab = NCC[C@H](N)C(=O)O", "data": [{"smiles": "CC(C)C[C@@H]1NC(=O)[C@@H](Cc2ccccc2)NC(=O)[C@H](CCN)NC(=O)[C@@H](NC(=O)[C@H](CCN)NC(=O)[C@@H](N)[C@@H](C)O)CCNC(=O)[C@H]([C@@H](C)O)NC(=O)[C@H](CCN)NC(=O)[C@H](CCN)NC1=O", "note": "[PMBN, polymyxin B nonapeptide] (H-T[Dab][Dab][Dab][dF]L[Dab][Dab]T; lactam 3-C (inferred); N-terminus assumed)", "values": [{"measurement": "MIC alone", "setting": "E. coli 107115; 107115, 18 h", "value": "< 256", "unit": "µg/mL"}, {"measurement": "MIC alone", "setting": "E. coli 107115; [1]", "value": "> 256", "unit": "µg/mL"}, {"measurement": "Fold-potentiation of erythromycin", "setting": "E. coli 107115; with 1 μg/mL adjuvant", "value": 32}, {"measurement": "Fold-potentiation of rifampicin", "setting": "E. coli 107115; with 1 μg/mL adjuvant", "value": 512}, {"measurement": "Fold-potentiation of ceftazidime", "setting": "E. coli 107115; with 2 μg/mL adjuvant", "value": 32}, {"measurement": "MIC alone", "setting": "E. cloacae 121187; 121187, 18 h", "value": 256, "unit": "µg/mL"}, {"measurement": "MIC alone", "setting": "E. cloacae 121187; [1]", "value": "> 256", "unit": "µg/mL"}, {"measurement": "Fold-potentiation of erythromycin", "setting": "E. cloacae 121187; with 8 μg/mL adjuvant", "value": 1}, {"measurement": "Fold-potentiation of rifampicin", "setting": "E. cloacae 121187; with 8 μg/mL adjuvant", "value": 1}, {"measurement": "MIC alone", "setting": "K. pneumoniae 113250; [1]", "value": "> 256", "unit": "µg/mL"}, {"measurement": "Fold-potentiation of erythromycin", "setting": "K. pneumoniae 113250; with 8 μg/mL adjuvant", "value": 8}, {"measurement": "Fold-potentiation of rifampicin", "setting": "K. pneumoniae 113250; with 8 μg/mL adjuvant", "value": 8}, {"measurement": "MIC alone", "setting": "K. pneumoniae 113254; [1]", "value": "> 256", "unit": "µg/mL"}, {"measurement": "Fold-potentiation of erythromycin", "setting": "K. pneumoniae 113254; with 8 μg/mL adjuvant", "value": 4}, {"measurement": "Fold-potentiation of rifampicin", "setting": "K. pneumoniae 113254; with 8 μg/mL adjuvant", "value": 4}, {"measurement": "MIC adjuvant alone", "setting": "P. aeruginosa PA 88949; PA 88949, 18 h", "value": 16, "unit": "µM"}, {"measurement": "Fold potentiation of aztreonam", "setting": "P. aeruginosa PA 88949; [2]", "value": 1}, {"measurement": "Fold potentiation of ceftazidime", "setting": "P. aeruginosa PA 88949; [2]", "value": 1}, {"measurement": "MIC adjuvant alone", "setting": "P. aeruginosa PA 107092; PA 107092, 18 h", "value": 56, "unit": "µM"}, {"measurement": "Fold potentiation of aztreonam", "setting": "P. aeruginosa PA 107092; adjuvant at 2 μg/mL as printed", "value": 4}, {"measurement": "Fold potentiation of ceftazidime", "setting": "P. aeruginosa PA 107092; adjuvant at 2 (PMBN, GCol), 1 (GPMB) μg/mL", "value": 8}, {"measurement": "Fold potentiation of aztreonam", "setting": "P. aeruginosa PA 107092; [3]", "value": 4}, {"measurement": "Fold potentiation of ceftazidime", "setting": "P. aeruginosa PA 107092; [3]", "value": 8}, {"measurement": "MIC adjuvant alone", "setting": "P. aeruginosa PA 86052", "value": 16, "unit": "µM"}, {"measurement": "MIC adjuvant alone", "setting": "P. aeruginosa PA 109084; PA 109084, 18 h", "value": 56, "unit": "µM"}, {"measurement": "Fold potentiation of ceftazidime", "setting": "P. aeruginosa PA 109084; adjuvant at 1 μg/mL as printed", "value": 16}, {"measurement": "Fold potentiation of aztreonam", "setting": "P. aeruginosa PA 109084; adjuvant at 1 (PMBN, GCol), 0.5 (GPMB) μg/mL as printed", "value": 16}, {"measurement": "Fold potentiation of ceftazidime", "setting": "P. aeruginosa PA 109084; with 8 μM avibactam, adjuvant at 2 μg/mL as printed", "value": 4}, {"measurement": "Fold potentiation of aztreonam", "setting": "P. aeruginosa PA 109084; with 8 μM avibactam, adjuvant at 2 (PMBN), 0.5 (GCol, GPMB) μg/mL as printed", "value": 16}, {"measurement": "MIC alone", "setting": "P. aeruginosa 114228; 114228, 18 h", "value": 256, "unit": "µg/mL"}, {"measurement": "Fold-potentiation of aztreonam", "setting": "P. aeruginosa 114228; with 8 μg/mL adjuvant", "value": 1}, {"measurement": "Fold-potentiation of ceftazidime", "setting": "P. aeruginosa 114228; with 8 μg/mL adjuvant", "value": 8}, {"measurement": "Fold-potentiation of erythromycin", "setting": "P. aeruginosa 114228; with 8 μg/mL adjuvant", "value": 1}, {"measurement": "Fold-potentiation of rifampicin", "setting": "P. aeruginosa 114228; with 8 μg/mL adjuvant", "value": 8}]}]}
